Test results reported in PubChem BioAssay AID2060902 (Molecular Pharmacology Branch, DTP, NCI, 2025).

System: 485368-065-R3-J5-PDC spheroids with HUVEC/MSC, viability
Assay: Anticancer human tumor 485368-065-R3-J5-PDC patient-derived pancreatic carcinoma cell line growth inhibition [RAS]
Conditions: for IC50: curve of first compound; for viability, T/C: stronger effect = lower value
Summary of the method: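 Tumour cells grown as complex spheroids with HUVEC endothelial cells and mesenchymal stem cells, treated with RAS pathway inhibitor combinations. Each agent spans half-log steps from near clinical Cmax, or 10 microM where Cmax is unknown.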

[1] = second compound 0.00316 µM, first compound 0.0316 µM
[2] = second compound 0.00316 µM, first compound 0.1 µM
[3] = second compound 0.00316 µM, first compound 0.316 µM
[4] = second compound 0.00316 µM, first compound 1 µM
[5] = second compound 0.00316 µM, first compound 3.16 µM
[6] = second compound 0.00316 µM, first compound 10 µM
[7] = second compound 0.01 µM, first compound 0.0316 µM
[8] = second compound 0.01 µM, first compound 0.1 µM
[9] = second compound 0.01 µM, first compound 0.316 µM
[10] = second compound 0.01 µM, first compound 1 µM
[11] = second compound 0.01 µM, first compound 3.16 µM
[12] = second compound 0.01 µM, first compound 10 µM
[13] = second compound 0.0316 µM, first compound 0.0316 µM
[14] = second compound 0.0316 µM, first compound 0.1 µM
[15] = second compound 0.0316 µM, first compound 0.316 µM
[16] = second compound 0.0316 µM, first compound 1 µM
[17] = second compound 0.0316 µM, first compound 3.16 µM
[18] = second compound 0.0316 µM, first compound 10 µM
[19] = second compound 0.1 µM, first compound 0.0316 µM
[20] = second compound 0.1 µM, first compound 0.1 µM
[21] = second compound 0.1 µM, first compound 0.316 µM
[22] = second compound 0.1 µM, first compound 1 µM
[23] = second compound 0.1 µM, first compound 3.16 µM
[24] = second compound 0.1 µM, first compound 10 µM
[25] = second compound 0.316 µM, first compound 0.0316 µM
[26] = second compound 0.316 µM, first compound 0.1 µM
[27] = second compound 0.316 µM, first compound 0.316 µM
[28] = second compound 0.316 µM, first compound 1 µM
[29] = second compound 0.316 µM, first compound 3.16 µM
[30] = second compound 0.316 µM, first compound 10 µM
[31] = second compound 1 µM, first compound 0.0316 µM
[32] = second compound 1 µM, first compound 0.1 µM
[33] = second compound 1 µM, first compound 0.316 µM
[34] = second compound 1 µM, first compound 1 µM
[35] = second compound 1 µM, first compound 3.16 µM
[36] = second compound 1 µM, first compound 10 µM
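Further: spheroids exposed to agents for seven days before readout.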

## NC1c2ccccc2OC12CCN(c1cnc3c(N4CCCc5ncccc54)n[nH]c3n1)CC2 (stereo not drawn) + C=CC(=O)N1CCN(c2nc(OCC3CCCN3C)nc3c(F)c(-c4nc(N)cc(C)c4C(F)(F)F)c(Cl)cc23)C(C)C1
Second compound 0.00316 µM
  IC50: > 10000 nM
Second compound 0.01 µM
  IC50: > 10000 nM
Second compound 0.0316 µM
  IC50: > 10000 nM
Second compound 0.1 µM
  IC50: > 10000 nM
Second compound 0.316 µM
  IC50: > 10000 nM
Second compound 1 µM
  IC50: > 10000 nM
[1]
  viability, T/C: 83.2%
[2]
  viability, T/C: 60.2%
[3]
  viability, T/C: 78.5%
[4]
  viability, T/C: 72.2%
[5]
  viability, T/C: 67%
[6]
  viability, T/C: 69.8%
[7]
  viability, T/C: 87.7%
[8]
  viability, T/C: 76.8%
[9]
  viability, T/C: 67.5%
[10]
  viability, T/C: 64.4%
[11]
  viability, T/C: 77%
[12]
  viability, T/C: 65.7%
[13]
  viability, T/C: 81.2%
[14]
  viability, T/C: 88.2%
[15]
  viability, T/C: 64.1%
[16]
  viability, T/C: 67.4%
[17]
  viability, T/C: 72.5%
[18]
  viability, T/C: 69.8%
[19]
  viability, T/C: 82.4%
[20]
  viability, T/C: 75.8%
[21]
  viability, T/C: 61.1%
[22]
  viability, T/C: 74.9%
[23]
  viability, T/C: 78%
[24]
  viability, T/C: 74.6%
[25]
  viability, T/C: 72.1%
[26]
  viability, T/C: 79.2%
[27]
  viability, T/C: 75.1%
[28]
  viability, T/C: 64.1%
[29]
  viability, T/C: 73.1%
[30]
  viability, T/C: 60.4%
[31]
  viability, T/C: 84.7%
[32]
  viability, T/C: 77.5%
[33]
  viability, T/C: 72.9%
[34]
  viability, T/C: 60.6%
[35]
  viability, T/C: 60.7%
[36]
  viability, T/C: 54.9%

## CCC(CC)c1cc(NC2CCC(N)C2)n2nccc2n1 (stereo not drawn) + CCn1c(-c2cccnc2C(C)OC)c2c3cc(ccc31)N1CCOC(CC(NC(=O)C(C(C)C)N(C)C(=O)C3(F)CCN(C(=O)C#CC(C)(C)N(C)C)CC3)C(=O)N3CCCC(N3)C(=O)OCC(C)(C)C2)C1
Second compound 0.000949 µM
  IC50: 1980 nM
Second compound 0.003 µM
  IC50: 2010 nM
Second compound 0.00949 µM
  IC50: 1990 nM
Second compound 0.03 µM
  IC50: 2030 nM
Second compound 0.0949 µM
  IC50: 2040 nM
Second compound 0.3 µM
  IC50: 2000 nM
Second compound 0.000949 µM, first compound 0.0316 µM
  viability, T/C: 104%
Second compound 0.000949 µM, first compound 0.1 µM
  viability, T/C: 97.3%
Second compound 0.000949 µM, first compound 0.316 µM
  viability, T/C: 116%
Second compound 0.000949 µM, first compound 1 µM
  viability, T/C: 133%
Second compound 0.000949 µM, first compound 3.16 µM
  viability, T/C: 5.59%
Second compound 0.000949 µM, first compound 10 µM
  viability, T/C: 9.62%
Second compound 0.003 µM, first compound 0.0316 µM
  viability, T/C: 102%
Second compound 0.003 µM, first compound 0.1 µM
  viability, T/C: 109%
Second compound 0.003 µM, first compound 0.316 µM
  viability, T/C: 116%
Second compound 0.003 µM, first compound 1 µM
  viability, T/C: 133%
Second compound 0.003 µM, first compound 3.16 µM
  viability, T/C: 5.13%
Second compound 0.003 µM, first compound 10 µM
  viability, T/C: 10.4%
Second compound 0.00949 µM, first compound 0.0316 µM
  viability, T/C: 95.7%
Second compound 0.00949 µM, first compound 0.1 µM
  viability, T/C: 112%
Second compound 0.00949 µM, first compound 0.316 µM
  viability, T/C: 101%
Second compound 0.00949 µM, first compound 1 µM
  viability, T/C: 138%
Second compound 0.00949 µM, first compound 3.16 µM
  viability, T/C: 4.94%
Second compound 0.00949 µM, first compound 10 µM
  viability, T/C: 11.5%
Second compound 0.03 µM, first compound 0.0316 µM
  viability, T/C: 104%
Second compound 0.03 µM, first compound 0.1 µM
  viability, T/C: 103%
Second compound 0.03 µM, first compound 0.316 µM
  viability, T/C: 112%
Second compound 0.03 µM, first compound 1 µM
  viability, T/C: 152%
Second compound 0.03 µM, first compound 3.16 µM
  viability, T/C: 4.96%
Second compound 0.03 µM, first compound 10 µM
  viability, T/C: 11%
Second compound 0.0949 µM, first compound 0.0316 µM
  viability, T/C: 105%
Second compound 0.0949 µM, first compound 0.1 µM
  viability, T/C: 108%
Second compound 0.0949 µM, first compound 0.316 µM
  viability, T/C: 114%
Second compound 0.0949 µM, first compound 1 µM
  viability, T/C: 149%
Second compound 0.0949 µM, first compound 3.16 µM
  viability, T/C: 5.12%
Second compound 0.0949 µM, first compound 10 µM
  viability, T/C: 10.1%
Second compound 0.3 µM, first compound 0.0316 µM
  viability, T/C: 108%
Second compound 0.3 µM, first compound 0.1 µM
  viability, T/C: 111%
Second compound 0.3 µM, first compound 0.316 µM
  viability, T/C: 120%
Second compound 0.3 µM, first compound 1 µM
  viability, T/C: 123%
Second compound 0.3 µM, first compound 3.16 µM
  viability, T/C: 4.15%
Second compound 0.3 µM, first compound 10 µM
  viability, T/C: 9.84%

## CC(C)NCC(C(=O)N1CCN(c2ncnc3c2C(C)CC3O)CC1)c1ccc(Cl)cc1 (stereo not drawn) + C=CC(=O)N1CCN(c2nc(OCC3CCCN3C)nc3c(F)c(-c4nc(N)cc(C)c4C(F)(F)F)c(Cl)cc23)C(C)C1
Second compound 0.00316 µM
  IC50: > 10000 nM
Second compound 0.01 µM
  IC50: > 10000 nM
Second compound 0.0316 µM
  IC50: > 10000 nM
Second compound 0.1 µM
  IC50: > 10000 nM
Second compound 0.316 µM
  IC50: > 10000 nM
Second compound 1 µM
  IC50: 9610 nM
[1]
  viability, T/C: 101%
[2]
  viability, T/C: 93.7%
[3]
  viability, T/C: 94.7%
[4]
  viability, T/C: 82.9%
[5]
  viability, T/C: 70.8%
[6]
  viability, T/C: 61.6%
[7]
  viability, T/C: 109%
[8]
  viability, T/C: 101%
[9]
  viability, T/C: 91.4%
[10]
  viability, T/C: 75.8%
[11]
  viability, T/C: 72.9%
[12]
  viability, T/C: 53.5%
[13]
  viability, T/C: 102%
[14]
  viability, T/C: 124%
[15]
  viability, T/C: 93.3%
[16]
  viability, T/C: 88.2%
[17]
  viability, T/C: 68.6%
[18]
  viability, T/C: 57%
[19]
  viability, T/C: 102%
[20]
  viability, T/C: 105%
[21]
  viability, T/C: 93.1%
[22]
  viability, T/C: 78.9%
[23]
  viability, T/C: 70.5%
[24]
  viability, T/C: 57.8%
[25]
  viability, T/C: 100%
[26]
  viability, T/C: 105%
[27]
  viability, T/C: 97.3%
[28]
  viability, T/C: 78.3%
[29]
  viability, T/C: 71.8%
[30]
  viability, T/C: 52.9%
[31]
  viability, T/C: 101%
[32]
  viability, T/C: 90.6%
[33]
  viability, T/C: 102%
[34]
  viability, T/C: 84.6%
[35]
  viability, T/C: 68%
[36]
  viability, T/C: 49.1%

## CCN1CCN(Cc2ccc(Nc3ncc(F)c(-c4cc(F)c5nc(C)n(C(C)C)c5c4)n3)nc2)CC1 + C=CC(=O)N1CCN(c2nc(OCC3CCCN3C)nc3c(F)c(-c4nc(N)cc(C)c4C(F)(F)F)c(Cl)cc23)C(C)C1
Second compound 0.00316 µM
  IC50: 316 nM
Second compound 0.01 µM
  IC50: 300 nM
Second compound 0.0316 µM
  IC50: 454 nM
Second compound 0.1 µM
  IC50: 644 nM
Second compound 0.316 µM
  IC50: 604 nM
Second compound 1 µM
  IC50: 627 nM
Second compound 0.00316 µM, first compound 0.00316 µM
  viability, T/C: 107%
Second compound 0.00316 µM, first compound 0.01 µM
  viability, T/C: 95.8%
[1]
  viability, T/C: 82.5%
[2]
  viability, T/C: 61.7%
[3]
  viability, T/C: 48.1%
[4]
  viability, T/C: 47%
Second compound 0.01 µM, first compound 0.00316 µM
  viability, T/C: 107%
Second compound 0.01 µM, first compound 0.01 µM
  viability, T/C: 96.7%
[7]
  viability, T/C: 81.3%
[8]
  viability, T/C: 64.3%
[9]
  viability, T/C: 49.6%
[10]
  viability, T/C: 38%
Second compound 0.0316 µM, first compound 0.00316 µM
  viability, T/C: 106%
Second compound 0.0316 µM, first compound 0.01 µM
  viability, T/C: 98.8%
[13]
  viability, T/C: 82.1%
[14]
  viability, T/C: 73.4%
[15]
  viability, T/C: 52.9%
[16]
  viability, T/C: 40.5%
Second compound 0.1 µM, first compound 0.00316 µM
  viability, T/C: 94.8%
Second compound 0.1 µM, first compound 0.01 µM
  viability, T/C: 88.1%
[19]
  viability, T/C: 90.1%
[20]
  viability, T/C: 76.8%
[21]
  viability, T/C: 60.2%
[22]
  viability, T/C: 43.8%
Second compound 0.316 µM, first compound 0.00316 µM
  viability, T/C: 97.5%
Second compound 0.316 µM, first compound 0.01 µM
  viability, T/C: 96.2%
[25]
  viability, T/C: 81%
[26]
  viability, T/C: 65.5%
[27]
  viability, T/C: 62.4%
[28]
  viability, T/C: 42.7%
Second compound 1 µM, first compound 0.00316 µM
  viability, T/C: 106%
Second compound 1 µM, first compound 0.01 µM
  viability, T/C: 88.3%
[31]
  viability, T/C: 80.3%
[32]
  viability, T/C: 68%
[33]
  viability, T/C: 57.3%
[34]
  viability, T/C: 44.8%
